Measured values published in patent publication US11547681B2, “N-acylethanolamide derivatives and uses thereof” (ELIEM THERAPEUTICS, INC., priority 2016, dated 2023).

Experiment: in vitro
Details: for Measured concentration of PEA (analyte) / % Remaining of Initial / Concentration of analyte I-9 / Concentration of analyte PEA / Measured concentration of analyte PEA, 0 min / Measured concentration of analyte PEA, 10 min / Measured concentration of analyte PEA, 20 min / Measured concentration of analyte PEA, 30 min / Measured concentration of analyte PEA, 60 min / % Remaining of Initial (n = 1) / % Remaining of Initial, 0 min / % Remaining of Initial, 10 min / % Remaining of Initial, 20 min / % Remaining of Initial, 30 min / % Remaining of Initial, 60 min: 1 μM; for % Remaining of Initial / microsomal CLint at 1 μM / half-life at 1 μM / % Remaining of Initial (n = 1) / % Remaining of Initial, 0 min / % Remaining of Initial, 10 min / % Remaining of Initial, 20 min / % Remaining of Initial, 30 min / % Remaining of Initial, 60 min: microsomes
Description: The reaction mixture, minus cofactors, was prepared as described below. The test article was added into the reaction mixture at a final concentration of 1 μM. […] An aliquot of the reaction mixture (without cofactor) was equilibrated in a shaking water bath at 37° C. for 3 minutes. The reaction was initiated by the addition of cofactor, and the mixture was incubated in a shaking water bath at 37° C. Aliquots (100 μL) were withdrawn at 0, 10, 20, 30, and 60 minutes. All samples were immediately combined with 400 μL of ice-cold 50/50 acetonitrile/H2O containing 0.1% formic acid and internal standard to terminate the reaction. The samples were then mixed and centrifuged to precipitate proteins. Calibration standards were prepared in matched matrix. All samples and standards were assayed by LC-MS/MS using electrospray ionization for both the dosed prodrug I-9 and the expected drug (PEA). Analytical conditions are outlined in Appendix 4-1. The test article concentration at each time point was compared to the test article concentration at time 0 to determine the percent remaining at each time point. Half-lives were calculated using GraphPad software, fitting to a single-phase exponential decay equation.
Reaction mixture, minus cofactors, was prepared as described below. Test article was added into the reaction mixture at a final concentration of 1 μM. […] An aliquot of the reaction mixture (without cofactor) was equilibrated in a shaking water bath at 37° C. for 3 minutes. The reaction was initiated by the addition of cofactor, and the mixture was incubated in a shaking water bath at 37° C. Aliquots (100 μL) were withdrawn at 0, 10, 20, 30, and 60 minutes. Test article samples were immediately combined with 300 μL of ice-cold acetonitrile containing 1% formic acid. Control samples were immediately combined with 400 μL of ice-cold 50/50 acetonitrile (ACN)/dH2O containing 0.1% formic acid and internal standard to terminate the reaction. Samples were then mixed and centrifuged to precipitate proteins. Calibration standards were prepared in matched matrix. Samples and standards were assayed by LC-MS/MS using electrospray ionization for both dosed prodrug and expected drug (PEA). Analytical conditions are outlined in Appendix 8-1. Test article concentration at each time point was compared to test article concentration at time 0 to determine the percent remaining at each time point. Half-lives were calculated using GraphPad software, fitting to a single-phase exponential decay equation.
Reaction mixture, minus cofactors, was prepared as described below. Test article was added into the reaction mixture at a final concentration of 1 μM. […] An aliquot of the reaction mixture (without cofactor) was equilibrated in a shaking water bath at 37° C. for 5 minutes. Reaction was initiated by the addition of cofactor, and the mixture was incubated in a shaking water bath at 37° C. Aliquots (100 μL) were withdrawn at 0, 10, 20, 30, and 60 minutes. Test article samples were immediately combined with 300 μL of ice-cold acetonitrile containing 1% formic acid. Control samples were immediately combined with 400 μL of ice-cold 50/50 acetonitrile (ACN)/dH2O containing 0.1% formic acid and internal standard to terminate the reaction. Samples were then mixed and centrifuged to precipitate proteins. Calibration standards were prepared in matched matrix. Samples and standards were assayed by LC-MS/MS using electrospray ionization for both the dosed prodrug and the expected drug (PEA). Analytical conditions are outlined in Appendix 10-1. Test article concentration at each time point was compared to the test article concentration at time 0 to determine the percent remaining at each time point. Half-lives were calculated using GraphPad software, fitting to a single-phase exponential decay equation.
Reaction mixture, minus cofactors, was prepared as described below. Test article was added into the reaction mixture at a final concentration of 1 μM.

[1] = both, human, calculated value in parentheses
[2] = both, human, Half-life, calculated value in parentheses
[3] = male, Sprague-Dawley, rat, 0 min
[4] = male, Sprague-Dawley, rat, 10 min
[5] = male, Sprague-Dawley, rat, 20 min
[6] = male, Sprague-Dawley, rat, 30 min
[7] = male, Sprague-Dawley, rat, 60 min
[8] = male, Sprague-Dawley, rat, 0.5 h
[9] = male, Sprague-Dawley, rat, calculated value in parentheses
[10] = male, Sprague-Dawley, rat, Half-life
[11] = male, Sprague-Dawley, rat, Half-life, calculated value in parentheses

Structure (SMILES): CCCCCCCCCCCCCCCC(=O)NCCOC(=O)CCC(=O)OC(CO)CO [Compound I-8]
- Measured concentration of PEA (analyte) (both, human, 0 min): 0.063 µM
- Measured concentration of PEA (analyte) (both, human, 10 min): 0.34 µM
- Measured concentration of PEA (analyte) (both, human, 20 min): 0.25 µM
- Measured concentration of PEA (analyte) (both, human, 30 min): 0.21 µM
- Measured concentration of PEA (analyte) (both, human, 60 min): 0.070 µM
- % Remaining of Initial (both, human, 0 h): 100%
- % Remaining of Initial (both, human, 10 min): 2.8%
- % Remaining of Initial (both, human, 20 min): <1.0%
- % Remaining of Initial (both, human, 0.5 h): <1.0%
- % Remaining of Initial (both, human, 1 h): <1.0%
- microsomal CLint at 1 μM (both, human): > 139 µL/min/mg
- microsomal CLint at 1 μM [1]: 712 µL/min/mg
- half-life at 1 μM (both, human, Half-life): < 10 min
- half-life at 1 μM [2]: 2 min
- Measured concentration of PEA (analyte) [3]: 0.033 µM
- Measured concentration of PEA (analyte) [4]: 0.041 µM
- Measured concentration of PEA (analyte) [5]: 0.019 µM
- Measured concentration of PEA (analyte) [6]: 0 µM
- Measured concentration of PEA (analyte) [7]: 0 µM
- % Remaining of Initial (male, Sprague-Dawley, rat, 0 h): 100%
- % Remaining of Initial [4]: 4.3%
- % Remaining of Initial [5]: 1.2%
- % Remaining of Initial [8]: <1.0%
- % Remaining of Initial (male, Sprague-Dawley, rat, 1 h): <1.0%
- microsomal CLint at 1 μM (male, Sprague-Dawley, rat): > 139 µL/min/mg
- microsomal CLint at 1 μM [9]: 624 µL/min/mg
- half-life at 1 μM [10]: < 10 min
- half-life at 1 μM [11]: 2.2 min

Structure (SMILES): CCCCCCCCCCCCCCCC(=O)NCCOC(=O)CCC(=O)OCC(O)CO (centres unmarked) [Compound I-9]
- Concentration of analyte I-9 (both, human, 0 min): 0.18 µM
- Concentration of analyte PEA (both, human, 0 min): 0.83 µM
- Measured concentration of analyte PEA, 0 min (both, human, 0 min): 0.47 µM
- Concentration of analyte I-9 (both, human, 10 min): 0.0021 µM
- Concentration of analyte PEA (both, human, 10 min): 0.60 µM
- Measured concentration of analyte PEA, 10 min (both, human, 10 min): 0.39 µM
- Concentration of analyte I-9 (both, human, 20 min): 0 µM
- Concentration of analyte PEA (both, human, 20 min): 0.51 µM
- Measured concentration of analyte PEA, 20 min (both, human, 20 min): 0.22 µM
- Concentration of analyte I-9 (both, human, 30 min): 0 µM
- Concentration of analyte PEA (both, human, 30 min): 0.41 µM
- Measured concentration of analyte PEA, 30 min (both, human, 30 min): 0.16 µM
- Concentration of analyte I-9 (both, human, 60 min): 0 µM
- Concentration of analyte PEA (both, human, 60 min): 0.20 µM
- Measured concentration of analyte PEA, 60 min (both, human, 60 min): 0.058 µM
- % Remaining of Initial (n = 1) (both, human, 0 h): 100%
- % Remaining of Initial, 0 min (both, human, 0 h): 100%
- % Remaining of Initial (n = 1) (both, human, 10 min): 1.2%
- % Remaining of Initial, 10 min (both, human, 10 min): <1.0%
- % Remaining of Initial (n = 1) (both, human, 20 min): <1.0%
- % Remaining of Initial, 20 min (both, human, 20 min): <1.0%
- % Remaining of Initial (n = 1) (both, human, 0.5 h): <1.0%
- % Remaining of Initial, 30 min (both, human, 0.5 h): <1.0%
- % Remaining of Initial (n = 1) (both, human, 1 h): <1.0%
- % Remaining of Initial, 60 min (both, human, 1 h): <1.0%
- microsomal CLint at 1 μM [1]: 888 µL/min/mg
- half-life at 1 μM (both, human, Half-Life): < 10 min
- half-life at 1 μM (both, human, Half-life): < 1 min
- half-life at 1 μM [2]: 1.6 min
- Concentration of analyte I-9 [3]: 0.21 µM
- Concentration of analyte PEA [3]: 0.35 µM
- Measured concentration of analyte PEA, 0 min [3]: 0.22 µM
- Concentration of analyte I-9 [4]: 0.0085 µM
- Concentration of analyte PEA [4]: 0.16 µM
- Measured concentration of analyte PEA, 10 min [4]: 0.066 µM
- Concentration of analyte I-9 [5]: 0 µM
- Concentration of analyte PEA [5]: 0.076 µM
- Measured concentration of analyte PEA, 20 min [5]: 0.017 µM
- Concentration of analyte I-9 [6]: 0 µM
- Concentration of analyte PEA [6]: 0.027 µM
- Measured concentration of analyte PEA, 30 min [6]: 0 µM
- Concentration of analyte I-9 [7]: 0 µM
- Concentration of analyte PEA [7]: 0.0030 µM
- Measured concentration of analyte PEA, 60 min [7]: 0 µM
- % Remaining of Initial (n = 1) (male, Sprague-Dawley, rat, 0 h): 100%
- % Remaining of Initial, 0 min (male, Sprague-Dawley, rat, 0 h): 100%
- % Remaining of Initial (n = 1) [4]: 4.0%
- % Remaining of Initial, 10 min [4]: 1.9%
- % Remaining of Initial (n = 1) [5]: <1.0%
- % Remaining of Initial, 20 min [5]: <1.0%
- % Remaining of Initial (n = 1) [8]: <1.0%
- % Remaining of Initial, 30 min [8]: <1.0%
- % Remaining of Initial (n = 1) (male, Sprague-Dawley, rat, 1 h): <1.0%
- % Remaining of Initial, 60 min (male, Sprague-Dawley, rat, 1 h): <1.0%
- microsomal CLint at 1 μM [9]: 642 µL/min/mg
- half-life at 1 μM (male, Sprague-Dawley, rat, Half-Life): < 10 min
- half-life at 1 μM [10]: 1.8 min
- half-life at 1 μM [11]: 2.2 min
